The conditions of the data set: Liquid, Ebulliometric method (Recirculating still).

Numbers after ± are expanded uncertainties.

Usually vapor or sublimation pressure stands for the equilibrium pressure above the liquid or solid. Take `CO` [methanol]: under “337.42 K”, the “vapor or sublimation pressure” value was 100 ± 0.7 kPa.

On to `CC(C)=O` [acetone], for which the “vapor or sublimation pressure” value (329 K) stood at 100 ± 0.7 kPa.
